Data published in PMC7997574, “Lead Optimization of Benzoxazolone Carboxamides as Orally Bioavailable and CNS Penetrant Acid Ceramidase Inhibitors” (Journal of Medicinal Chemistry, 2020).
≈ marks a conversion by molar mass, not a printed value. Where a name gives a salt, the structure may show the parent alone. Read-outs that look alike come from different tables or passages of the source.

Legend:
[1] = biological target: T1, AC (Homo sapiens, UniProt Q13510); experiment: Fluorogenic hAC assay on hAC-enriched lysate of HEK293 cells; format: biochemical; parameters: expressed in transfected cells; conditions: for fold more potent than 23e (hAC): vs 23e hAC IC50 = 0.363 μM
T1 sequence (Q13510 22-395): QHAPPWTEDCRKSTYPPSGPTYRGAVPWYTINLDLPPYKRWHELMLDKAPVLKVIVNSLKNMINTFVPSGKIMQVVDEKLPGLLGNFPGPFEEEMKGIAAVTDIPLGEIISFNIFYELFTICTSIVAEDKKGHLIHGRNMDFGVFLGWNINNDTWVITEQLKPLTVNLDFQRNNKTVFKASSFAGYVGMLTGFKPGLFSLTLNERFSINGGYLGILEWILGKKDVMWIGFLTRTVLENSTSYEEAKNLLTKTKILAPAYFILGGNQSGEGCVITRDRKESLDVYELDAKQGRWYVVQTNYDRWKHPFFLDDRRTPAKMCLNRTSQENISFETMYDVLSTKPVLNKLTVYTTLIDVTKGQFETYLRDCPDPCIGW
Procedure: HEK293 cells stably expressing hAC were grown in Dulbecco’s modified Eagle medium (DMEM) containing 10% FBS, 1% glutamine, 1 mM sodium pyruvate, and 500 μg mL^–1 G418. Cells were harvested, and pellets were stored at −80 °C until lysosomal-enriched lysate preparation. Cells were suspended in 20 mM Tris HCl (pH 7.5) with 0.32 M sucrose, sonicated, and centrifuged at 800 × g for 30 min at 4 °C. Supernatants were then centrifuged at 12000 × g for 30 min at 4 °C. Pellets were resuspended in PBS (pH 7.4) and subjected to three freeze–thaw cycles at −80 °C. The suspension was finally centrifuged at 105000 × g for 1 h at 4 °C, and protein concentration was measured in the supernatant with the bicinchoninic acid based protein assay. This hAC-enriched preparation allowed us to further optimize the enzymatic assay and to use small amounts of lysate (2 μg per well) at a 5 μM substrate (Rbm14–12) around its KM (KM = 5.0 μM).
The assay was performed in Optiplate 96-well black plates, with each reaction well containing a mixture of 25 mM NaOAc buffer (pH 4.5) and a fixed amount of protein (2 μg) in a volume of 85 μL. After 10 min of preincubation with test compounds (diluted 20× from DMSO stock solutions at different concentrations), the fluorogenic probe was added (diluted 40× from EtOH stock solution, final concentration 5 μM). After 3 h of incubation at 37 °C, reactions were stopped with 50 μL of MeOH and 100 μL of a 2.5 mg mL^–1 NaIO4 fresh solution in 100 mM glycine/NaOH buffer (pH 10.6). The plates were further incubated for 2 h at 37 °C in the dark, and fluorescence intensities were measured at excitation/emission wavelengths of 355/460 nm. Negative control samples consisted of the same incubation mixture in the absence of protein-enriched extracts. Data were plotted as a function of compound concentrations. IC50 values were calculated by nonlinear regression analysis using GraphPad Prism 5 (GraphPad Software Inc., CA, USA) applying a standard slope curve fitting. The reported IC50 values are the mean of at least three independent experiments performed in three technical replicates.

[2] = Chemical stability assay in PBS pH 7.4; format: physicochemical; conditions: phosphate-buffered saline, read-out: chemical stability t1/2
Procedure: Chemical stability of selected compounds was evaluated under physiological pH conditions (0.01 M phosphate-buffered saline, pH 7.4) for up to 8 h. The buffer was added with 10% MeCN. Stock solutions of each compound (10 mM) were freshly prepared in MeCN. Each compound was incubated at a final concentration of 1 μM in preheated buffer (37 °C). The sample solutions were divided into aliquots in glass vials (preheated at 37 °C) for each time point. The samples were maintained at 37 °C in the UPLC/MS autosampler during the study (no shaking). A reference solution of each compound (final concentration: 1 μM) in preheated MeCN was prepared from the stock solutions and maintained at 37 °C in the UPLC/MS autosampler during the study. For each time point, the samples were analyzed directly by LC/MS without any further sample preparation. The samples were analyzed by integrating the corresponding MRM peak areas. The relative compound concentration was calculated by dividing the peak area at each time point by the peak area at t = 0 min. The reference solution was analyzed at the beginning (t = 0 min) and at the end of the study (t = 8 h). The apparent half-life (t1/2) of the disappearance of the compound was calculated using the best fitting equation by GraphPad Prism (GraphPad Software, Inc., USA). The analyses were performed on a Waters ACQUITY UPLC/MS TQD system consisting of a triple quadrupole detector (TQD) MS equipped with an ESI interface and a photodiode array detector. The analyses were run on an ACQUITY UPLC BEH C18 1.7 μm 2.1 × 50 mm column with a VanGuard BEH C18 1.7 μm preolumn at 40 °C. For each compound, the appropriate mobile phase was chosen. ESI was applied in positive mode. Values are the mean of at least two independent experiments performed in two technical replicates.

[3] = In vitro plasma stability study; format: in vitro ADME; conditions: mouse plasma
Procedure: Freshly prepared 10 mM MeCN stock solution of test compound was diluted 50-fold with DMSO/H2O (1:1) and incubated at 37 °C for 2 h with mouse plasma added in 5% DMSO (preheated at 37 °C for 10 min). The final concentration was 2 μM. At each time point (0, 5, 15, 30, 60, and 120 min), 50 μL of incubation mixture was diluted with 200 μL of cold MeCN spiked with 200 nM internal standard followed by centrifugation at 3300 × g for 20 min. The supernatant was further diluted with H2O (1:1) for analysis. The concentration of test compound was quantified by LC/MS/MS on a Waters ACQUITY UPLC/MS TQD system consisting of a TQD MS equipped with an ESI interface. The analyses were run on an ACQUITY UPLC BEH C18 (50 × 2.1 mm ID, particle size 1.7 μm) with a VanGuard BEH C18 precolumn (5 × 2.1 mm ID, particle size 1.7 μm) at 40 °C. For each compound, the appropriate mobile phase was chosen. ESI was applied in positive mode. The response factors, calculated on the basis of the internal standard peak area, were plotted over time. When possible, response vs time profiles were fitted with Prism (GraphPad Software, Inc., USA) to estimate compound t1/2 in plasma. Values are the mean of at least two independent experiments performed in two technical replicates.

[4] = Aqueous kinetic solubility assay; format: physicochemical; conditions: PBS, pH 7.4
Procedure: The aqueous kinetic solubility was determined from a 10 mM MeCN stock solution of test compound in Phosphate-Buffered Saline (PBS) at pH 7.4. The study was performed by incubation of an aliquot of 10 mM MeCN stock solution in PBS (pH 7.4) at a target concentration of 250 μM. The incubation was carried out under shaking at 25 °C for 1 h followed by centrifugation at 21100 × g for 30 min. The supernatant was analyzed by UPLC/MS for the quantification of the dissolved compound (in μM) by UV at a specific wavelength (215 nm). […] The UPLC/MS analyses were performed on a Waters ACQUITY UPLC/MS system consisting of a single quadrupole detector (SQD) Mass Spectrometer (MS) equipped with an Electrospray Ionization (ESI) interface and a Photodiode Array Detector (PDA). The PDA range was 210–400 nm. ESI in positive mode was used in the mass scan range of 100–650 Da. The analyses were run on an ACQUITY UPLC BEH C18 column (50 × 2.1 mm ID, particle size 1.7 μm) with a VanGuard BEH C18 precolumn (5 × 2.1 mm ID, particle size 1.7 μm), using 10 mM NH4OAc in H2O at pH 5 adjusted with AcOH (A) and 10 mM NH4OAc in MeCN/H2O (95:5) at pH 5 (B) as the mobile phase. Values are reported as mean values of ≥2 experiments performed.

[5] = In vitro microsomal stability study; format: in vitro ADME; conditions: pH 7.4; mouse liver microsomes; read-out: m-LM t1/2
Procedure: Freshly prepared 10 mM MeCN stock solution of test compound was preincubated at 37 °C for 15 min with mouse liver microsomes added in 0.1 M Tris HCl buffer (pH 7.4). The final concentration was 4.6 μM. After preincubation, the cofactors (NADPH, G6P, G6PDH, and MgCl2 predissolved in 0.1 M Tris HCl) were added to the incubation mixture, and the incubation was continued at 37 °C for 1 h. At each time point (0, 5, 15, 30, and 60 min), 30 μL of incubation mixture was diluted with 200 μL of cold MeCN spiked with 200 nM internal standard followed by centrifugation at 3300 × g for 15 min. The supernatant was further diluted with H2O (1:1) for analysis. The concentration of the test compound was quantified by LC/MS/MS on a Waters ACQUITY UPLC/MS TQD system consisting of a TQD MS equipped with an ESI interface. The analyses were run on an ACQUITY UPLC BEH C18 (50 × 2.1 mm ID, particle size 1.7 μm) with a VanGuard BEH C18 precolumn (5 × 2.1 mm ID, particle size 1.7 μm) at 40 °C. For each compound, the appropriate mobile phase was chosen. ESI was applied in positive mode. The percentage of test compound remaining at each time point relative to t = 0 was calculated. t1/2 was determined by a one-phase decay equation using a nonlinear regression of compound concentration vs time. Values are the mean of at least two independent experiments performed in two technical replicates.

[6] = supplementary csv, read-out: hAC, IC50
[7] = read-out: mouse plasma stability t1/2
[8] = hAC expressed in HEK-293 cells, read-out: hAC IC50 (μM)±SD

| Compound | solubility at 1 h [4] [µM] | IC50 [1, 8] [µM] | half-life at 1 h, 4.6 µM [5] [min] | half-life at 2 µM ([3]; read-out: m-plasma t1/2) [min] | further results |
| --- | --- | --- | --- | --- | --- |
| O=C(NCCCCc1ccccc1)n1c(=O)oc2ccncc21 [8a, 2-Oxo-N-(4-phenylbutyl)oxazolo[4,5-c]pyridine-3-carboxamide] |  |  |  |  | IC50 ([1]; read-out: hAC IC50): 0.006 µM; half-life at 1 μM ([2]; PBS, pH 7.4): < 15 min |
| O=C(NCCCCc1ccccc1)n1c(=O)oc2cnccc21 [8b, 2-Oxo-N-(4-phenylbutyl)oxazolo[5,4-c]pyridine-1-carboxamide] |  |  |  |  | IC50 ([1]; read-out: hAC IC50): 0.003 µM; half-life at 1 μM ([2]; PBS, pH 7.4): < 15 min |
| O=C(NCCCCc1ccccc1)n1c2c(oc1=O)CCNC2 [12b, 2-Oxo-N-(4-phenylbutyl)-4,5,6,7-tetrahydrooxazolo[4,5-c]pyridine-3-carboxamide Hydrochloride] | 82 |  |  |  | IC50 [1, 6]: 0.247 ± 0.156 µM; half-life at 1 μM ([2]; PBS at pH 7.4): > 480 min; half-life at 2 μM [3, 7]: > 120 min |
| O=C(NCCCCc1ccccc1)n1c2c(oc1=O)CNCC2 [17b, 2-Oxo-N-(4-phenylbutyl)-4,5,6,7-tetrahydrooxazolo[5,4-c]pyridine-1-carboxamide Hydrochloride] | 230 |  |  |  | IC50 [1, 6]: 0.341 ± 0.012 µM; half-life at 1 μM ([2]; PBS at pH 7.4): > 480 min; half-life at 2 μM [3, 7]: > 120 min |
| CC(C)CNC(=O)n1c(=O)oc2ccc(C3CCN(C)CC3)cc21 [24c, N-Isobutyl-5-(1-methyl-4-piperidyl)-2-oxo-1,3-benzoxazole-3-carboxamide] | 60 (≈ 19.9 µg/mL) | 0.295 ± 0.06 | 40 | 30 |  |
| CC(C)CNC(=O)n1c(=O)oc2c(C3CCN(C)CC3)cccc21 [compound 25, N-Isobutyl-7-(1-methyl-4-piperidyl)-2-oxo-1,3-benzoxazole-3-carboxamide] | 230 (≈ 76.2 µg/mL) | 0.535 ± 0.073 | 30 | 40 |  |

More lines, main results first:

| solubility at 1 h [4] [µM] | IC50 [1, 8] [µM] | half-life at 1 h, 4.6 µM [5] [min] | half-life at 2 µM ([3]; read-out: m-plasma t1/2) [min] | Compound | further results |
| --- | --- | --- | --- | --- | --- |
| < 1 | 0.056 ± 0.006 |  |  | CCN1CCN(c2ccc3c(c2)oc(=O)n3C(=O)NCCCCc2ccccc2)CC1 [23g, 6-(4-Ethylpiperazin-1-yl)-2-oxo-N-(4-phenylbutyl)-1,3-benzoxazole-3-carboxamide] | half-life at 4.6 μM [5]: < 5 min; fold more potent than 23e (hAC) [1]: ~7 fold; half-life at 2 μM ([3]; read-out: m-plasma t1/2): < 5 min |
| < 1 | 0.092 ± 0.026 | 30 | 20 | CN1CCN(c2ccc3c(c2)oc(=O)n3C(=O)NCCCCc2ccccc2)CC1=O [23j, 6-(4-Methyl-3-oxo-piperazin-1-yl)-2-oxo-N-(4-phenylbutyl)-1,3-benzoxazole-3-carboxamide] |  |
| 20 (≈ 8.45 µg/mL) | 0.052 ± 0.04 |  | 20 | CN1CCN(c2ccc3c(c2)oc(=O)n3C(=O)NCCCCc2ccccc2)C(=O)C1 [23k, 6-(4-Methyl-2-oxo-piperazin-1-yl)-2-oxo-N-(4-phenylbutyl)-1,3-benzoxazole-3-carboxamide] | half-life at 4.6 μM [5]: < 5 min; fold more potent than 23e (hAC) [1]: ~7 fold |
